Experimental data reported in patent US20110008279A1, “Methods and Compositions Relating to Adhesins as Adjuvants” (priority 2005, published 2011).

Columns and labels:
[1] = Heparin-agarose affinity chromatography; type: binding; conditions: salt gradient 0.05-3M NaCl
Method: Using, affinity chromatography with different buffers (phosphate 20 mM and hepes 20 mM), pH (5.5, 7.4 and 8.0) and CaCl2 concentrations, the binding of NadA to heparin was further investigated. A solution of hepes 20 mM containing 5 μg NadA was added to 100 μl of heparin-agarose pre-equilibrated in the same buffer. After washing, bound protein was eluted using a salt gradient (0.05-3M NaCl). All the fractions from the previous steps were collected and transferred to nitrocellulose membrane using Dot-blot. The protein was detected with a rabbit polyclonal anti-NadA antibody and phosphatase alcalyne-conjugated goat anti-rabbit anti-IgG with its substrate. This protocol has shown a heterogeneous behaviour for NadA. A fraction of the protein elutes at physiological salt concentrations (100-150 mM NaCl) and a further one elutes at high salt concentrations (up to 3M NaCl).

human monocytes [2] = assay: Cytokine and chemokine secretion by human monocytes (Bio-Plex, IL-23 ELISA); type: cell-based
human monocytes [3] = assay: Surface markers of human monocytes; type: cell-based
Description: The functional effect of NadA on human monocytes and macrophages was investigated using a soluble recombinant mutant lacking the membrane anchor and a full length protein expressed in E. coli OMV or N meningitidis OMV. To better define the immuno-modulatory activity of NadA, the cells were stimulated with protein plus or minus both microbial stimulus (LPS) and immunological stimulus (IFNγ).
The effect of NadAΔ351-405 on monocyte and macrophage cells was further investigated by measuring the expression of the antigen presentation marker MHC-II, the co-stimulatory molecules CD80 and CD86 and the cell adhesion molecule ICAM-1.

mo-DCs = assay: Real-time PCR of cytokine mRNA in mo-DCs; type: cell-based, human
Method: Mo-DC were pre-treated or not with IFN-γ 1000 U/ml and stimulated with NadA […] and LPS […] for 3-5-8 h. Treated and untreated cells were pelleted and used for RNA isolation. Total RNA was extracted using the TRIzolÒ reagent (GibcoBRL) according to the manufacturer's instruction, precipitated and resuspended in […] of RNAse free water (Gibco). RNA was quantified with a fluorescence spectrophotometer (BeckmanDU 530). First strand cDNA was prepared from […] of total RNA by using the Superscript™ II Reverse Transcriptase (Invitrogen) with oligodT primers (Sigma Genosys). The cDNA levels of IL12p35, IL12p40, IL-23p19, TNF-α and IL-6 were quantified by Real Time quantitative PCR using a qPCRTM Core Kit for Sybr Green I (Eurogentec) with a GeneAmp 5700 Sequence Detection System according to the manifacturer's instructions (Applied Biosystems). After an initial denaturation step at 95° C. for 10 min, temperature cycling was initiated. Each cycle consisted of 30 sec at 95° C. and 30 sec at 60° C. […]
All amplification products were cloned into a TOPO TA vector (Invitrogen) and quantified by Beckman DU 530 spectrophotometer. […]
The cDNA levels during the linear phase of amplification were normalized against HMBS. […] CT values were determined by the GeneAmp 5700 SDS software using fluorescence threshold manually set and exported into Excel for analysis.

human monocytes [4] = assay: Soluble mediator secretion by monocytes after 3 and 7 culture days, re-stimulated with LPS; type: cell-based
Method: The secretion of the main immune mediators by human monocytes, after 3 and 7 culture days following stimulation with NadAΔ351-405 or LPS, was tested with a Bioplex immune array after 24 hours incubation with LPS. Analysis was performed to test pro-inflammatory cytokine TNFα and IL6, regulatory cytokine IL-10 and IL-12(p70) and chemokine IL-8, MCP-1, MIP1-α, RANTES and […] secretion.

naïve T cells = assay: Intracellular detection of IFN-γ and IL-4 in T cells by flow cytometry; type: cell-based, human; conditions: T cells activated by IFN-γ primed, matured mo-DCs
Method: Mo-DC pre-treated in various conditions were co-cultured with naïve T cells for five days and re-stimulated with ionomycin 1 μg/ml and PMA 10 ng/ml for 2.5 h and for 3 h in the presence of a Brefeldin-A, (10 μg/ml final concentration). Cells were then washed and fixed for 15 min (Fix and Penn cell permeabilization kit, Caltag). After one washing step cells were permeabilised and stained with FITC conjugated anti interferon-γ mAB (BD-Pharmigen) and PE conjugated anti IL-4 mAb (Caltag) or with irrelevant isotype control for 30 min. Then cells were washed again, resuspended and analysed by flow cytoflorimetry.

human macrophages = assay: Cytokine and chemokine secretion by human macrophages (Bio-Plex, IL-23 ELISA); type: cell-based
Method: The secretion of various immune mediators by isolated adherent human […] and macrophages was assayed with a Bio-Plex immune array. The pro-inflammatory cytokines IL-1α, IL-1β, TNFα, IFNγ, IL-6, the growth factor GM-CSF, the regulatory cytokines IL-12 (p40), IL-12 (p70), IL-10, as well as the chemokines IL-8, MCP-1, MIP-1α, IP-10, RANTES and EOTAXIN were assayed. The lymphocyte cytokines IL-2, IL-3, IL-4, IL-5, IL-7, IL-13 and IL-15 were also assayed. IL-23 expression was assayed using an ELISA assay. No secretion of IL-2, IL-3, IL-4, IL-5, IL-7, IL-13 or IL-15 was detected.
Peripheral monocytes and macrophages were stimulated with different concentrations of NadAΔ351-405, with or without LPS (0.2 μg/ml) and IFNγ (1000 U/ml), and with purified E. coli or N. meningitis OMV.

Substance: NadAΔ351-405
- NaCl concentration of elution from heparin-agarose, further fraction [1]: up to 3 M
- NaCl concentration of elution from heparin-agarose, one fraction [1]: 100 to 150 mM
- IL-10 production (human monocytes [2]): induced the production
- IL-23 expression (human monocytes [2]): only in the presence of IFNγ
- MCP-1 production (human monocytes [2]): significant levels
- IL-1α, IL-1β and TNFα secretion (human monocytes [2]; NadA alone): not significantly induced
- IL-8 secretion (human monocytes [2]; NadA alone): significant secretion
- IP-10 production (human monocytes [2]; NadA alone): In neither monocytes nor macrophages was NadA alone able to produce IP-10
- IL-12(p40) and IL-12(p70) expression (human monocytes [2]; alone or in the presence of LPS): not significantly expressed
- expression of IL-1α and TNFα (human monocytes [2]; co-stimulation with LPS): inhibited
- GM-CSF secretion (human monocytes [2]; even with IFNγ co-stimulation): does not stimulate secretion
- IL-10 expression (so in the source) (human monocytes [2]; only in the presence of IFNγ and LPS): efficiently increased
- IL-6 secretion (human monocytes [2]; presence or absence of LPS): significant secretion
- MIP-1α production (human monocytes [2]; with or without co-stimulus): produced
- CD80 expression (human monocytes [3]; co-stimulation with IFN-γ): increased
- CD86 or HLA-DR expression (human monocytes [3]; with LPS or IFN-γ): No NadA immunomodulatory effect
- IL12-p40, IL12-p35 and IL-23p19 transcription (mo-DCs): increased by NadA only if cells were primed with IFN-γ
- transcription activities of genes encoding IL-6, TNFα, p40, p35 and p19 relative to LPS-activated cells (mo-DCs; IFN-γ primed mo-DCs): < 1%
- IL-6 production (human monocytes [4]; after 3 days of culture, re-stimulated with LPS): greater production of IL-6 compared to LPS-treated cells
- IL-10 production (human monocytes [4]; cultured cells re-stimulated with LPS): able to induce IL-10 production
- IFN-γ+ T cells, % of total T cell population (naïve T cells): 13-31%
- IFN-γ+/IL-4+ T cells, % of total T cell population (naïve T cells): 4-12%
- IL-4+ T cells, % of total T cell population (naïve T cells): 3-18%
- EOTAXIN expression (human macrophages): decrease
- GM-CSF secretion (human macrophages): No secretion
- IL-1α production (human macrophages): No IL-1α was produced
- IL-1β and TNFα production (human macrophages): produced only IL-1β and TNFα
- IL-10 production (human macrophages): induced the production
- IP-10 production (human macrophages; NadA alone): In neither monocytes nor macrophages was NadA alone able to produce IP-10
- IL-12(p40) expression (human macrophages; NadA alone, even in the presence of LPS and IFNγ): decrease
- IL-6 secretion (human macrophages; together with IFNγ): increasing secretions
